Where “and” joins values, the source holds several entries; their conditions need not be identical. Equal entries are not always repeated.
How the values were obtained:
Assay type in all cases: cell-based
SCRM2-FAMA heterodimer = biological target: T1, SCRM2-FAMA heterodimer (Arabidopsis thaliana, UniProt Q56YJ8); assay: Ratiometric BiFC in N. benthamiana leaves; conditions: 100 µM
T1 construct: heterodimerization of SCRM with full-length SPCH, MUTE, or FAMA in the context of the plant cells; we performed rBiFC assays using full-length SCRM2; nYFP (N terminus of EYFP, 174 amino acids); cYFP (C terminus of EYFP, 64 amino acids); expressed in transfected cells; host or cells: Nicotiana benthamiana leaves (Agrobacterium infiltration)
Excerpt: (§1) For ratiometric BiFC assays, the cDNAs of SPCH, MUTE, and FAMA were cloned into the 35S CaMV promoter-driven destination vector pSPYNE, which contains the N terminus of the EYFP protein (nYFP-174 amino acids), while the cDNA of SCRM and SCRM2 was inserted into pSPYCE, which contains the C terminus of the EYFP protein (cYFP-64 amino acids) (see Supplementary Table 5 for detailed information of the constructs). The constructs were then transformed into Agrobacterium tumefaciens strain GV3101. The Agrobacterium was resuspended in infiltration buffer (10 mM MgCl2, 10 mM 2-(N-morpholino)ethanesulfonic acid [pH 5.6], and 150 µM acetosyringone). Bacterial culture densities were adjusted to a final optical density (OD600) of 1.0, and the cell suspensions were incubated at room temperature for 4 hours prior to infiltration. Equal volumes of cultures carrying the corresponding complementary pair of BiFC constructs (YFPn and YFPc), along with CaMV35S::Histone H2B-mScarlet-I3 and the silencing suppressor plasmid p19 (a gift from Dr. Sir David Baulcombe) were mixed and then co-infiltrated into 4-week-old N. benthamiana leaves. The infiltrated N. benthamiana leaves were incubated at 25 °C for 2 days. Subsequently, leaf discs were cut out and cultured in mock or in liquid 1/2 MS media in mock (DMSO) or 100 µM Stomidazolone for 1 day. Confocal imaging of N. benthamiana leaves was performed using a Leica SP8 confocal microscope using a 20X objective lens (Leica Microsystems), simultaneously capturing YFP (excitation at 518 nm and emission at 530 nm) and mScarlet-I3 (excitation at 569 nm and emission at 600 nm) differential interference contrast channels.

SCRM-MUTE heterodimer = biological target: T2, SCRM-MUTE heterodimer (Arabidopsis thaliana, UniProt Q9M8K6); assay: Ratiometric BiFC in N. benthamiana leaves; conditions: 100 μM, 1 day
T2 construct: expressed in transfected cells; host or cells: yeast strain AH109
T2 sequence (Q9M8K6 1-202): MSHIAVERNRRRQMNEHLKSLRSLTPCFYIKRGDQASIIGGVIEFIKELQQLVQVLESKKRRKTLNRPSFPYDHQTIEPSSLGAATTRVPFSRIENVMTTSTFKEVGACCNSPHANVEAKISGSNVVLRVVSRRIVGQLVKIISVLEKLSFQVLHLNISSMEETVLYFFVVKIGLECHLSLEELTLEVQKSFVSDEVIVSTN
Excerpt: as §1

SCRM-FAMA heterodimer = biological target: T3, SCRM-FAMA heterodimer (Arabidopsis thaliana, UniProt Q56YJ8); assay: Ratiometric BiFC in N. benthamiana leaves; conditions: 100 μM, 1 day
T3 construct: heterodimerization of SCRM with full-length SPCH, MUTE, or FAMA in the context of the plant cells; combinations of split YFP constructs fused to the full-length stomatal bHLH proteins; nYFP (N terminus of EYFP, 174 amino acids); cYFP (C terminus of EYFP, 64 amino acids); expressed in transfected cells; host or cells: Nicotiana benthamiana leaves (Agrobacterium infiltration)
T3 sequence (Q56YJ8 1-414): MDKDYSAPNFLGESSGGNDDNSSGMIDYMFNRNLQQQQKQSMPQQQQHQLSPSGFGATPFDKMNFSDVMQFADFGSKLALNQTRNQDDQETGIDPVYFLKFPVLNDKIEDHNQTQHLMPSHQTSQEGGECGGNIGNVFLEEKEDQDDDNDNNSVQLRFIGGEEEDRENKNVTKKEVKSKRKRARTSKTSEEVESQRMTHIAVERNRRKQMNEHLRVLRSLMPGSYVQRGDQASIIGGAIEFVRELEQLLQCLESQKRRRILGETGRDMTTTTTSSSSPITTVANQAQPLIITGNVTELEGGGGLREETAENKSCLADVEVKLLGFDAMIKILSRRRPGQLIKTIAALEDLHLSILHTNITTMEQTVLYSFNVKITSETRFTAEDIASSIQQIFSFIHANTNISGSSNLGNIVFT
Excerpt: as §1

SCRM2-SPCH heterodimer = biological target: T4, SCRM2-SPCH heterodimer (Arabidopsis thaliana, UniProt Q700C7); assay: Ratiometric BiFC in N. benthamiana leaves; conditions: 100 µM
T4 construct: heterodimerization of SCRM with full-length SPCH, MUTE, or FAMA in the context of the plant cells; we performed rBiFC assays using full-length SCRM2; nYFP (N terminus of EYFP, 174 amino acids); cYFP (C terminus of EYFP, 64 amino acids); expressed in transfected cells; host or cells: Nicotiana benthamiana leaves (Agrobacterium infiltration)
Excerpt: as §1

SCRM2-MUTE heterodimer = biological target: T5, SCRM2-MUTE heterodimer (Arabidopsis thaliana, UniProt Q9M8K6); assay: Ratiometric BiFC in N. benthamiana leaves; conditions: 100 µM
T5 construct: heterodimerization of SCRM with full-length SPCH, MUTE, or FAMA in the context of the plant cells; nYFP (N terminus of EYFP, 174 amino acids); expressed in transfected cells; host or cells: Nicotiana benthamiana leaves (Agrobacterium infiltration)
Excerpt: as §1

DB+SCRM (control yeast) = biological target: T6, DB+SCRM (control yeast) (Arabidopsis thaliana, UniProt Q9LSE2); assay: Y2H quantitative α-galactosidase assay, control pair DB+SCRM; conditions: individual replicates, listed as AYSJ929
T6 construct: expressed in transfected cells; host or cells: yeast strain AH109
T6 sequence (Q9LSE2 1-494): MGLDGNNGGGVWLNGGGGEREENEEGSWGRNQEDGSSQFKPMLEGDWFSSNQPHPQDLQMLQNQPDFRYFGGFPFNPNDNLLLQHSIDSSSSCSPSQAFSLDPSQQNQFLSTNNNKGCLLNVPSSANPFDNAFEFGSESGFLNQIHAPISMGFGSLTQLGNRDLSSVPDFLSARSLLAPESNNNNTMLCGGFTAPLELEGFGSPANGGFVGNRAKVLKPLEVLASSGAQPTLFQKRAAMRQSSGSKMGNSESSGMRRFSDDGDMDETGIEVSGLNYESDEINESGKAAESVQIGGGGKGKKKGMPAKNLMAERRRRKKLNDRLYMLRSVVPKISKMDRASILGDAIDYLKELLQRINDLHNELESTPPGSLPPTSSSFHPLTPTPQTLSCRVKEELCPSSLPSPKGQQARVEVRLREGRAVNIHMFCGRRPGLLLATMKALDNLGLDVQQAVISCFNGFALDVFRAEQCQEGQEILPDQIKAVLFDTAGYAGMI
Excerpt: Supplement 41467_2024_53214_MOESM7_ESM.xlsx, sheet "Fig.6b" | column: a-galactosidase [milliunits /(ml x cell)]

T4 sequence (Q700C7 whole entry, one chain of several): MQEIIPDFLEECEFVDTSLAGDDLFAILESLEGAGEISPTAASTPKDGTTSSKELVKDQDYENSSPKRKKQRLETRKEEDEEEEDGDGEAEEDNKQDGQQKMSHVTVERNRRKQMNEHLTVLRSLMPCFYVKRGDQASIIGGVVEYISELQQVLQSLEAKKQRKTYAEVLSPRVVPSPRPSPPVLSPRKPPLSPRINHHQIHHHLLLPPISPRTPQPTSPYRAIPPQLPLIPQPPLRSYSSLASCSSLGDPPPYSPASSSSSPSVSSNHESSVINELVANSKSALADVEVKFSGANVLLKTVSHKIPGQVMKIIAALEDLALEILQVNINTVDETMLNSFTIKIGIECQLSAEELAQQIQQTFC

O=C1C(c2ccccc2)=NC(NS(=O)(=O)c2ccccc2)(c2ccccc2)N1S(=O)(=O)c1ccccc1 (centres unmarked) [Stomidazolone]
effect on heterodimerization (in words) (SCRM2-FAMA heterodimer): abolished
effect on heterodimerization, YFP/RFP signal ratio (in words) (SCRM-MUTE heterodimer): severely perturbs
effect on heterodimerization, YFP/RFP signal ratio (in words) (SCRM-FAMA heterodimer): not affecting
effect on heterodimerization (in words) (SCRM2-SPCH heterodimer): abolished
effect on heterodimerization (in words) (SCRM2-MUTE heterodimer): abolished
a-galactosidase (DB+SCRM (control yeast); 10 µM): 0.72 milliunits /(ml x cell) and 0.19 milliunits /(ml x cell) and 0.32 milliunits /(ml x cell)
a-galactosidase (DB+SCRM (control yeast); 50 µM): 0.16 milliunits /(ml x cell) and 0.47 milliunits /(ml x cell) and 0.51 milliunits /(ml x cell)
a-galactosidase (DB+SCRM (control yeast); 100 µM): 0.46 milliunits /(ml x cell) and 0.80 milliunits /(ml x cell) and 0.52 milliunits /(ml x cell)

— publication PMC11500415, “Chemical inhibition of stomatal differentiation by perturbation of the master-regulatory bHLH heterodimer via an ACT-Like domain” (Nature Communications, 2024)
